Results: article PMC8269135, “Diethylstilbestrol, a Novel ANO1 Inhibitor, Exerts an Anticancer Effect on Non-Small Cell Lung Cancer via Inhibition of ANO1” (International Journal of Molecular Sciences, 2021)

Legend:
[1] = molecular target: T1, cystic fibrosis transmembrane conductance regulator (CFTR) (Homo sapiens, UniProt P13569); test: YFP fluorescence and Ussing chamber short-circuit current in FRT-hCFTR cells, […]; format: cell-based
T1 construct: human CFTR expressed in FRT cells

Anoctamin1 (ANO1) = molecular target: T2, Anoctamin1 (ANO1) (Homo sapiens, UniProt Q5XXA6); test: YFP quenching assay in FRT-ANO1 cells; short-circuit current; whole-cell patch clamp in HEK293; format: cell-based
T2 construct: human ANO1 expressed in FRT cells (YFP assay, Ussing chamber) and HEK293 cells (patch clamp)
T2 sequence (Q5XXA6 1-986): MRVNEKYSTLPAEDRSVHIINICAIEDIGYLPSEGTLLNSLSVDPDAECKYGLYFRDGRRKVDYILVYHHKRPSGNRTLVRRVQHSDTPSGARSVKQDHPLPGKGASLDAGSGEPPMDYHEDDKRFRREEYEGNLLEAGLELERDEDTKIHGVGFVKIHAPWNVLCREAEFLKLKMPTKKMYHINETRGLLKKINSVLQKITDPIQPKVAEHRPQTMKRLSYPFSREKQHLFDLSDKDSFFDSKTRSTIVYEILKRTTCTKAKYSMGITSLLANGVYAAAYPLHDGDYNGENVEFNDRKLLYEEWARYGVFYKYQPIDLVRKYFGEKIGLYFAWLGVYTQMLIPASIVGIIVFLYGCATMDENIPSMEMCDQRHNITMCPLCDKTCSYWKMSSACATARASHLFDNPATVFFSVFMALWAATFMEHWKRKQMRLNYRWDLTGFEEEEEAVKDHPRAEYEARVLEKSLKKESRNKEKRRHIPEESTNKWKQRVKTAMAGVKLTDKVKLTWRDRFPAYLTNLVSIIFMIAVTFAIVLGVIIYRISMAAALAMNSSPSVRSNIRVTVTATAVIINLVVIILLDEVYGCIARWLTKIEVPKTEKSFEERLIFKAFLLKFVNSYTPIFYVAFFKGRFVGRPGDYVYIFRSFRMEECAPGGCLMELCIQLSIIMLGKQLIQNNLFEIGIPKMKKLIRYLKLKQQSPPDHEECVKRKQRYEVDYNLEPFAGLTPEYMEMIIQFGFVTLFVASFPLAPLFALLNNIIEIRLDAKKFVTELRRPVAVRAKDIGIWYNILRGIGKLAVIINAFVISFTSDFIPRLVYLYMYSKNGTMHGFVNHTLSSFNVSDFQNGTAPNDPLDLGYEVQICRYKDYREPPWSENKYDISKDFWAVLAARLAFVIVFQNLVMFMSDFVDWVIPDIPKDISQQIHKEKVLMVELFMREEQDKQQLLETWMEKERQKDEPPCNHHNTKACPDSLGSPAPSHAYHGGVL

T1 sequence (P13569 whole entry): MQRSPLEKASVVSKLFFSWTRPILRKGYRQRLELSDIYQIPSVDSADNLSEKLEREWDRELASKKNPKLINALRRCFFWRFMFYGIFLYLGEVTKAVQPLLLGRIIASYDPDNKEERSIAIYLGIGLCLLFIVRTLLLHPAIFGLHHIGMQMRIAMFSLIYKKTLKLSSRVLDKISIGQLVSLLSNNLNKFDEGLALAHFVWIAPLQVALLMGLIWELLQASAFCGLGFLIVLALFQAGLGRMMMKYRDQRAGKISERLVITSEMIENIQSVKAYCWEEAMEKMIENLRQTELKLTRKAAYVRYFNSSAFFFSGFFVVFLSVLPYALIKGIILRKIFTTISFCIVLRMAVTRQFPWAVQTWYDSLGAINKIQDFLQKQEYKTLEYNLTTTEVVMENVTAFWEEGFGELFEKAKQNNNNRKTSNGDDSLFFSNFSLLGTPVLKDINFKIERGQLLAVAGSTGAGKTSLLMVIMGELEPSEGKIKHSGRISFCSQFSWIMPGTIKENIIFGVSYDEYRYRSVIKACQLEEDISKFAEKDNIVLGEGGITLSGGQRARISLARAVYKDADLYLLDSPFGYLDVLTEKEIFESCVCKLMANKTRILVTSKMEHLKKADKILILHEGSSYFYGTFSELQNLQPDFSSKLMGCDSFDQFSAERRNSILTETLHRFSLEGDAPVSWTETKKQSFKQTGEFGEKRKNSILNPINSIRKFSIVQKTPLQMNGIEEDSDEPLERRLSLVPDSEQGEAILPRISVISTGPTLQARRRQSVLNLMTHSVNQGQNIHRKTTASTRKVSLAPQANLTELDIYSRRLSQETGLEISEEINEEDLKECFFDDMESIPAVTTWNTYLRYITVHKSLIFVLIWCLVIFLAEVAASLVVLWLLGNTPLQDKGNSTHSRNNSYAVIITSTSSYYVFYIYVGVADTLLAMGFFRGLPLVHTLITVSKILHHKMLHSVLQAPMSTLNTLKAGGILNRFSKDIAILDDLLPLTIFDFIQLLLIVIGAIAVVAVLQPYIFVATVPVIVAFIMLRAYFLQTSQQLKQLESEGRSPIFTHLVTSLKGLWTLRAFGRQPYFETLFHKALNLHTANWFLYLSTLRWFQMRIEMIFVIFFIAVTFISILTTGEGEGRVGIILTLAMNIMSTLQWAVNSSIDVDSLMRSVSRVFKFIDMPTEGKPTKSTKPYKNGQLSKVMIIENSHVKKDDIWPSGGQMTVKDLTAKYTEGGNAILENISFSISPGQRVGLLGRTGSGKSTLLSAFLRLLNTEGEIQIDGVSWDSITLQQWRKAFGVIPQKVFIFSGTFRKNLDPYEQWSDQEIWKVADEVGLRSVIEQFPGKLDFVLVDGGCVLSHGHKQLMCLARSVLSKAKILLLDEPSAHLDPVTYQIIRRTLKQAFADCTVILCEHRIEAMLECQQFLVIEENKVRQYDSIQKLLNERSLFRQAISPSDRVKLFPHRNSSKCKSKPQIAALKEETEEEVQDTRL

Compound | YFP fluorescence and Ussing chamber short-circuit current in FRT-hCFTR cells, 10 [1] | IC50 (Anoctamin1 (ANO1)) [µM]
O=C(O)c1ccc(/C=C2\SC(=S)N(c3cccc(C(F)(F)F)c3)C2=O)cc1 [CFTRinh-172] | forskolin-induced CFTR activity was inhibited by CFTRinh172 (a known CFTR channel inhibitor) | –
CC/C(=C(/CC)c1ccc(O)cc1)c1ccc(O)cc1 [DES, diethylstilbestrol] | – | 6.58
